Data: the supplement of paper PMC8967900

Tests used:
Assay in all cases: selective drug sensitivity score (sDSS, relative to normal bone marrow) (sDSS (score)); higher = more potent and effective on the cell line relative to normal bone marrow cells
Settings in all cases: 72 h
697 = test system: 697
ALL-PO = test system: ALL-PO
CCRF-HSB2 = test system: CCRF-HSB2
COG-LL-317 = test system: COG-LL-317
COG-LL-402h = test system: COG-LL-402h
HAL-01 = test system: HAL-01
KARPAS-45 = test system: KARPAS-45
KOPN-8 = test system: KOPN-8
MHH-CALL-2 = test system: MHH-CALL-2
MHH-CALL-3 = test system: MHH-CALL-3
MHH-CALL-4 = test system: MHH-CALL-4
MOLT-4 = test system: MOLT-4
NALM-16 = test system: NALM-16
NALM-6 = test system: NALM-6
P30-OHKUBO = test system: P30-OHKUBO
PF-382 = test system: PF-382
RCH-ACV = test system: RCH-ACV
RPMI-8402 = test system: RPMI-8402
SEM cells = test system: SEM cells
TANOUE = test system: TANOUE
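Also: ALL cell lines in 384-well plates, five doses spanning 10,000-fold, each plate scaled between vehicle and 100 µmol/L benzalkonium chloride controls, sDSS an adapted area-under-curve metric.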

Structure (SMILES)	selective drug sensitivity score 697	selective drug sensitivity score (ALL-PO)	selective drug sensitivity score (CCRF-HSB2)	selective drug sensitivity score (COG-LL-317)	selective drug sensitivity score (COG-LL-402h)	selective drug sensitivity score (HAL-01)	selective drug sensitivity score (KARPAS-45)	selective drug sensitivity score (KOPN-8)	selective drug sensitivity score (MHH-CALL-2)	selective drug sensitivity score (MHH-CALL-3)	selective drug sensitivity score (MHH-CALL-4)	selective drug sensitivity score (MOLT-4)	selective drug sensitivity score (NALM-16)	selective drug sensitivity score (NALM-6)	selective drug sensitivity score (P30-OHKUBO)	selective drug sensitivity score (PF-382)	selective drug sensitivity score (RCH-ACV)	selective drug sensitivity score (RPMI-8402)	selective drug sensitivity score (SEM cells)	selective drug sensitivity score (TANOUE)
CC(C)Oc1ccc(-c2nn([C@@H](C)c3oc4ccc(F)cc4c(=O)c3-c3cccc(F)c3)c3ncnc(N)c23)cc1F [TGR-1202] (top concentration 2500 nM)	0.44	3.84	-2.06	-2.56	-1.96	3.04	-2.36	4.54	-0.06	-2.56	-0.06	-2.56	2.24	-1.16	5.14	-2.56	9.14	-2.06	-2.56	-2.56
C[C@H](Nc1ncnc2nc[nH]c12)c1cc2cccc(Cl)c2c(=O)n1-c1ccccc1 [Duvelisib] (top concentration 500 nM)	2.16	0.86	-0.44	1.96	4.96	9.76	-0.44	0.16	-0.94	-0.14	-0.34	-0.94	-0.94	4.36	5.76	-0.94	21	-0.94	-0.54	-0.94
Cc1c(-c2c(-c3ccc(F)o3)sc3ncnc(O[C@H](Cc4ccccc4OCc4ccnn4CC(F)(F)F)C(=O)O)c23)ccc(OCCN2CCN(C)CC2)c1Cl (top concentration 1000 nM)	-0.84	-7.74	-5.14	-2.84	6.06	-7.74	-0.24	13.4	-6.04	1.56	-4.64	-2.84	-4.64	-3.44	1.26	-7.74	-6.54	-4.54	-6.44	-7.74
CN[C@@H](C)C(=O)N[C@H](C(=O)N1CCC[C@H]1c1nc(C(=O)c2ccc(F)cc2)cs1)C1CCCCC1 [NVP-LCL161] (top concentration 25000 nM)	-4.92	0.38	1.88	-2.02	-5.42	7.88	-1.82	0.28	3.98	-3.22	1.58	-4.32	-5.82	-5.82	-1.12	-4.12	-0.52	-2.42	-0.22	-5.82
Nc1ccccc1NC(=O)c1ccc(CNC(=O)OCc2cccnc2)cc1 [Entinostat] (top concentration 10000 nM)	8.28	4.08	3.28	2.98	4.98	2.58	9.48	11.6	8.98	11.4	8.88	1.48	0.28	1.08	5.68	2.08	9.98	5.08	12.9	-8.52
O=C(/C=C\n1cnc(-c2cc(C(F)(F)F)cc(C(F)(F)F)c2)n1)NNc1cnccn1 [Selinexor] (top concentration 10000 nM)	12.4	13.5	14.8	17.4	11.7	9.08	10.9	17.1	7.48	24.5	5.18	13.2	0.48	13	9.28	9.78	13.7	12.3	5.38	-7.02
Nc1ncnc2c1nc(N)n2[C@@H]1O[C@H](CO)[C@@H](O)[C@H]1O [8-amino-adenosine] (top concentration 50000 nM)	6.48	5.48	6.98	3.28	5.78	7.08	-3.32	7.48	3.28	5.38	2.18	-2.52	4.48	6.68	6.18	0.18	6.68	0.18	5.08	0.98
C[C@H]1O[C@@H](O[C@H]2[C@@H](O)C[C@H](O[C@H]3[C@@H](O)C[C@H](O[C@H]4CC[C@@]5(C)[C@H](CC[C@@H]6[C@@H]5C[C@@H](O)[C@]5(C)[C@@H](C7=CC(=O)OC7)CC[C@]65O)C4)O[C@@H]3C)O[C@@H]2C)C[C@H](O)[C@@H]1O [Digoxin] (top concentration 1000 nM)	8.6	4	6.6	8.7	6.4	9.9	12.3	12.9	11.9	10.5	5.6	12.3	4.9	10.5	9.1	11.1	8.1	8.3	10	-2.9
COc1ccc(COc2cc3oc(=O)c4cc(C(C)O)ccc4c3cc2OC)cc1 (stereo not given) [Palomid-529] (top concentration 10000 nM)	0.06	2.86	1.46	0.06	0.26	-0.24	2.76	10.3	1.06	-0.24	-0.24	2.26	-0.24	-0.24	-0.24	1.06	-0.14	2.86	1.76	0.36
NC1(c2ccc(-c3nc4ccn5c(=O)[nH]nc5c4cc3-c3ccccc3)cc2)CCC1 [MK-2206] (top concentration 1000 nM)	3.76	5.46	3.26	3.56	2.76	6.96	2.26	3.46	9.66	3.86	5.76	2.76	2.46	2.76	6.36	3.26	13.2	1.96	4.36	-1.64
C[C@@H](Nc1cc(F)cc(F)c1)c1cc(C(=O)N(C)C)cc2c(=O)cc(N3CCOCC3)oc12 [AZD-8186] (top concentration 1000 nM)	3.64	0.34	1.64	-0.26	5.14	8.14	2.14	3.44	4.64	3.84	4.34	-0.06	-0.06	5.14	7.24	0.54	14.9	0.44	2.44	-0.26
CCN(CC)CCNC(=O)c1c(C)[nH]c(/C=C2\C(=O)Nc3ccc(-c4csc(-c5ccccc5)n4)cc32)c1C [Amcasertib] (top concentration 10000 nM)	2.4	6.7	3.1	7.7	-3.2	7.4	6.4	-1.1	4.9	-3.2	2.2	-2.4	-2.1	0	3.9	2.7	3.3	-1.5	3	-2.6
C[C@H]1C=C2C(=O)O[C@H]3CC[C@@H](C1)[C@@]23O [Galiellalactone] (top concentration 25000 nM)	3.26	-0.34	2.76	7.36	3.76	6.06	5.16	4.16	4.16	11.4	-3.84	-0.44	6.06	5.16	5.26	4.16	7.76	0.06	3.56	-0.94
COC(=O)N[C@@H](C)CNc1nccc(-c2cn(C(C)C)nc2-c2cc(Cl)cc(NS(C)(=O)=O)c2F)n1 [Encorafenib] (top concentration 1000 nM)	8	0	1.8	0	0	0	2.6	16.2	1.7	0	0	0	0	3.5	1.3	1.5	1	0	0.1	0
NC(=O)N1CCC(CC(=O)N2CCC([C@H]3c4ncc(Br)cc4CCc4cc(Cl)cc(Br)c43)CC2)CC1 [Lonafarnib] (top concentration 100000 nM)	7.54	4.64	9.14	14	3.64	3.44	24.1	12.8	9.24	4.54	7.44	10.5	4.04	6.24	7.84	9.44	8.64	19.2	14.1	-3.96
Cc1nc(NC(=O)N2CCC[C@H]2C(N)=O)sc1-c1ccnc(C(C)(C)C(F)(F)F)c1 [Alpelisib] (top concentration 2500 nM)	1.08	3.28	1.68	-0.42	4.18	0.78	0.38	5.38	1.68	-0.82	-0.22	0.88	1.38	3.88	2.78	0.48	8.98	-0.02	-0.82	-0.82
O=C(Nc1ccc2[nH]nc(-c3ccncc3)c2c1)[C@@H]1CCN(CC(=O)N2CCN(c3ccc(-c4ncccn4)cc3)CC2)C1 (top concentration 10000 nM)	0.66	3.76	3.26	-2.04	1.76	0.06	-0.84	12.9	1.26	7.16	3.96	-3.04	-4.24	4.76	-3.74	0.56	-0.44	-1.64	-2.64	-4.64
CN1CCC(CNc2ccc3ncc(-c4cccc(OC(F)(F)F)c4)n3n2)CC1 [SGI-1776] (top concentration 10000 nM)	-0.68	7.02	3.12	0.02	-2.48	1.92	-2.08	-0.78	1.22	-3.98	0.32	-2.88	-1.38	-3.08	0.12	-2.68	0.62	-2.68	6.92	-8.18
